Laboratory results published in ChEMBL document CHEMBL5584231, “Rational design of a new short anticancer peptide with good potential for cancer treatment” (Eur J Med Chem, 2024).
Activity calls are given as the source filed them. The calls are words filed in the database; no cut-off is given here. Non-standard residues stand in square brackets, D forms with d. Residues, ends and D or L forms follow the SMILES beside them. Aad = N[C@@H](CCCC(=O)O)C(=O)O

Assays:
[1] = test system: HeLa; experiment: Cytotoxicity against human HeLa cells assessed as inhibition of cell growth incubated for 1 hr by MTT assay; format: functional, cell-based
[2] = test system: MCF7; experiment: Cytotoxicity against human MCF7 cells assessed as inhibition of cell growth incubated for 1 hr by MTT assay; format: functional, cell-based; settings: MCF7, 1 h
[3] = Cytotoxicity against HK-2 cells assessed as inhibition of cell growth incubated for 1 hr by MTT assay; format: toxicity, cell-based; settings: human
[4] = Therapeutic index, ratio of HC10 for mouse RBC to IC50 for cytotoxicity against human HeLa cells; format: toxicity, cell-based; settings: mouse RBC and HeLa cells, read-out: TI
[5] = Therapeutic index, ratio of HC10 for mouse RBC to IC50 for cytotoxicity against human MCF7 cells; format: toxicity, cell-based; settings: mouse RBC and MCF7 cells, read-out: TI
[6] = Therapeutic index, ratio of HC10 for mouse RBC to IC50 for cytotoxicity against RG cells (unknown origin); format: toxicity, cell-based; settings: mouse RBC and RG cells, read-out: TI
[7] = Therapeutic index, ratio of HC10 for mouse RBC to IC50 for cytotoxicity against human A549 cells; format: toxicity, cell-based; settings: mouse RBC and A549 cells, read-out: TI
[8] = Drug uptake in human MCF7 cells at 5 uM incubated for 1 hr by laser confocal scanning microscopic analysis; format: ADME, cell-based; settings: mcf7, 1 h
[9] = Drug uptake in HK-2 cells at 5 uM incubated for 1 hr by laser confocal scanning microscopic analysis; format: ADME, cell-based; settings: human, hk-2, 1 h
[10] = Stability in mouse serum assessed as compound remaining at 10 mM incubated for 12 hrs by RP-HPLC analysis; format: ADME, cell-free; settings: read-out: Stability
[11] = Stability in mouse serum assessed as half life at 10 mM incubated for 12 hrs by RP-HPLC analysis; format: ADME, cell-free
[12] = test system: MCF7; experiment: Cytotoxicity against human MCF7 cells assessed as cell viability at 2 times IC50 measured for 30 mins by MTT assay relative to control; format: functional; settings: 0.5 h
[13] = test system: Cell membrane; experiment: Disruption of cell membrane in human MCF7 cells assessed as LDH release at 2.5 to 40 uM incubated for 1 hr by fluorescence based microplate reader analysis; format: cell membranes; settings: dose 2.5-40 µM
[14] = test system: Cell membrane; experiment: Disruption of cell membrane in human MCF7 cells assessed as LDH release at 40 uM incubated for 1 hr by fluorescence based microplate reader analysis relative to control; format: cell membranes
[15] = test system: Cell membrane; experiment: Induction of morphological changes in cell membrane of human MCF7 cells assessed as membrane damage at 1 times IC50 incubated for 1 hr by SEM analysis; format: cell membranes
[16] = test system: Cell membrane; experiment: Induction of morphological changes in cell membrane of human MCF7 cells assessed as cell depression at 1 times IC50 incubated for 1 hr by SEM analysis; format: cell membranes
[17] = test system: Cell membrane; experiment: Induction of morphological changes in cell membrane of human MCF7 cells assessed as severe membrane rupture at 1 times IC50 incubated for 1 hr by SEM analysis; format: cell membranes
[18] = test system: Cell membrane; experiment: Induction of morphological changes in cell membrane of human MCF7 cells assessed as intracellular outflow at 1 times IC50 incubated for 1 hr by SEM analysis; format: cell membranes
[19] = test system: Cell membrane; experiment: Disruption of cell membrane integrity in human MCF7 cells assessed as increase in PI fluorescence at 1 times IC50 by laser confocal scanning microscopic analysis; settings: time 0-120 min, TDE = time-dependent effect
[20] = test system: Cell membrane; experiment: Disruption of cell membrane integrity in human MCF7 cells assessed as increase in PI fluorescence at 2 times IC50 measured after 0 to 120 mins by laser confocal scanning microscopic analysis; format: cell membranes; settings: time 0-120 min
[21] = test system: Cell membrane; experiment: Disruption of cell membrane integrity in human MCF7 cells assessed as increase in PI fluorescence measured after 1 hr by laser confocal scanning microscopic analysis; format: cell membranes
[22] = test system: Cell membrane; experiment: Induction of cell membrane damage in human MCF7 cells assessed as nucleic acid leakage at 1 to 2 times IC50 measured after 0.5 to 6 hrs by UV based analysis; format: cell membranes; settings: time 0.5-6 hrs
[23] = test system: MCF7; experiment: Effect on cell cycle progression in human MCF7 cells at 1 times IC50 measured after 1 hr by PI/RNase staining based flow cytometry analysis; format: functional
[24] = test system: MCF7; experiment: Induction of apoptosis in human MCF7 cells assessed as live cells at 1 times IC50 measured after 24 hrs by Annexin V-FITC staining based flow cytometry analysis (reference value: 92%); format: functional
[25] = test system: MCF7; experiment: Induction of apoptosis in human MCF7 cells assessed as increase in intracellular ROS generation at 1 times IC50 measured after 0 to 360 mins by DCFH-DA staining based analysis; format: functional, cell-based; settings: time 0-360 min
[26] = test system: MCF7; experiment: Cytotoxicity against human MCF7 cells assessed as reduction in cell survival at 0.5 to 1 times IC50 incubated for 24 hrs in presence of 1 uM paclitaxel by MTT assay; format: functional, cell-based
[27] = test system: 4T1; experiment: Antitumor activity against mouse 4T1 cells implanted in female Balb/c mouse assessed as reduction in tumor growth at 12 micromol/kg, ip administered every other day for 2 weeks and measured every 2 days; format: functional, organism-based; settings: dose 12.0 µmol/kg
[28] = test system: 4T1; experiment: Antitumor activity against mouse 4T1 cells implanted in female Balb/c mouse assessed as reduction in tumor weight at 12 micromol/kg, ip administered every other day for 2 weeks and measured every 2 days relative to control; format: functional; set-up: scale not given: the % may be the effect or the level left; settings: dose 12 µmol/kg
[29] = Toxicity in female Balb/c mouse implanted with mouse 4T1 cells assessed as reduction in body weight at 12 micromol/kg, ip administered every other day for 2 weeks and measured every 2 days; format: organism-based; settings: in vivo, 336 h, dose 12 µmol/kg
[30] = Toxicity in female Balb/c mouse implanted with mouse 4T1 cells assessed as pathological changes in heart at 12 micromol/kg, ip administered every other day for 2 weeks by H and E staining based analysis; format: organism-based; settings: in vivo, 336 h, dose 12 µmol/kg
[31] = Toxicity in female Balb/c mouse implanted with mouse 4T1 cells assessed as pathological changes in liver at 12 micromol/kg, ip administered every other day for 2 weeks by H and E staining based analysis; format: organism-based; settings: in vivo, 336 h, dose 12 µmol/kg
[32] = Toxicity in female Balb/c mouse implanted with mouse 4T1 cells assessed as pathological changes in spleen at 12 micromol/kg, ip administered every other day for 2 weeks by H and E staining based analysis; format: organism-based; settings: in vivo, 336 h, dose 12 µmol/kg
[33] = Toxicity in female Balb/c mouse implanted with mouse 4T1 cells assessed as pathological changes in lung at 12 micromol/kg, ip administered every other day for 2 weeks by H and E staining based analysis; format: organism-based; settings: in vivo, 336 h, dose 12 µmol/kg
[34] = Toxicity in female Balb/c mouse implanted with mouse 4T1 cells assessed as pathological changes in kidney at 12 micromol/kg, ip administered every other day for 2 weeks by H and E staining based analysis; format: organism-based; settings: in vivo, 336 h, dose 12 µmol/kg
[35] = Acute toxicity in ip dosed female Balb/c mouse administered as single dose and measured for 7 days by karber method; format: organism-based; settings: in vivo, time 7 day
[36] = Acute toxicity in female Balb/c mouse assessed as heart damage at approximately LD50 administered as single ip dose by H and E staining based analysis; format: organism-based; settings: in vivo
[37] = Acute toxicity in female Balb/c mouse assessed as lung damage at approximately LD50 administered as single ip dose by H and E staining based analysis; format: organism-based; settings: in vivo
[38] = Acute toxicity in female Balb/c mouse assessed as cellular swelling in liver at approximately LD50 administered as single ip dose by H and E staining based analysis; format: organism-based; settings: in vivo

SMILES	IC50 [1] [µM]	IC50 [2] [µM]	IC50 at 1 h [3] [µM]	selectivity ratio [4]	selectivity ratio [5]	selectivity ratio [6]	selectivity ratio [7]	Drug uptake [8]	Drug uptake [9]	remaining at 12 h, 10000 µM [10] [%]	half-life at 10000 µM [11] [h]	Activity [12] [%]	Activity [13]	Activity [14] [%]	Activity [15]	Activity [16]	Activity [17]	Activity [18]	Activity [19]	Activity [20]	also measured
CC(C)C[C@H](NC(=O)[C@H](CCCCN)NC(=O)[C@H](CCCCN)NC(=O)[C@H](CC(C)C)NC(=O)[C@H](CC(C)C)NC(=O)[C@H](CCCCN)NC(=O)[C@H](CCCCN)NC(=O)[C@H](CC(C)C)NC(=O)[C@H](CC(C)C)NC(=O)[C@H](CCCCN)NC(=O)[C@H](CCCCN)NC(=O)[C@H](CC(C)C)NC(=O)[C@@H](N)CC(C)C)C(=O)N[C@@H](CCC(=O)O)C(N)=O (H-LLKKLLKKLLKKLE-NH2)	9.46	21.4	59.3	32.1	14.2	14.2	21.1	Active	Not Active	28.6	7.78	~30	Active	74.1	Active	Active	Active	Active	Tde	Active	Activity [21]: Dose-Dependent Effect; Activity [22]: Active; Activity [23]: inactive; Activity [24]: 57.2%; Activity [25]: Active; Activity [26]: Active; Activity [27]: Active; Activity [28]: 33.4%; Activity [29]: Non-Toxic; Activity [30]: Non-Toxic; Activity [31]: Non-Toxic; Activity [32]: Non-Toxic; Activity [33]: Non-Toxic; Activity [34]: Non-Toxic; LD50 at 168 h [35]: 79.9 mg/kg; Activity [36]: Non-Toxic; Activity [37]: Non-Toxic; Activity [38]: Toxic
CC(C)C[C@H](NC(=O)[C@H](CC(C)C)NC(=O)[C@H](CCCCN)NC(=O)[C@H](CCCCN)NC(=O)[C@H](CC(C)C)NC(=O)[C@H](CC(C)C)NC(=O)[C@H](CCCCN)NC(=O)[C@H](CCCCN)NC(=O)[C@H](CC(C)C)NC(=O)[C@H](CC(C)C)NC(=O)[C@H](CCCCN)NC(=O)[C@H](CCCCN)NC(=O)[C@H](CC(C)C)NC(=O)[C@@H](N)CC(C)C)C(N)=O (H-LLKKLLKKLLKKLL-NH2)	5.91	4.76	5.4	1.83	2.27	1.69	2.96	Active	Active	45.6	11.1	~30	Active	82	Active	Active	Active	Active	Tde	Active	Activity [21]: Dose-Dependent Effect; Activity [22]: Active; Activity [23]: inactive; Activity [24]: 58.1%; Activity [25]: Active; Activity [26]: Active; Activity [27]: Active; Activity [28]: 28.4%; Activity [29]: Non-Toxic; Activity [30]: Non-Toxic; Activity [31]: Non-Toxic; Activity [32]: Non-Toxic; Activity [33]: Non-Toxic; Activity [34]: Non-Toxic; LD50 at 168 h [35]: 50.2 mg/kg; Activity [36]: Non-Toxic; Activity [37]: Non-Toxic; Activity [38]: Toxic
CC(C)C[C@H](NC(=O)[C@H](CCCCN)NC(=O)[C@H](CCCCN)NC(=O)[C@H](CC(C)C)NC(=O)[C@H](CC(C)C)NC(=O)[C@H](CCCCN)NC(=O)[C@H](CCCCN)NC(=O)[C@H](CC(C)C)NC(=O)[C@H](CC(C)C)NC(=O)[C@H](CCCCN)NC(=O)[C@H](CCCCN)NC(=O)[C@H](CC(C)C)NC(=O)[C@@H](N)CC(C)C)C(=O)N[C@@H](CCCC(=O)O)C(N)=O (H-LLKKLLKKLLKKL[Aad]-NH2)	7.15	15.7	38.7	35.7	16.3	12.7	24.9	Active	Not Active	31.6	7.6	~30	Active	82.3	Active	Active	Active	Active	Tde	Active	Activity [21]: Dose-Dependent Effect; Activity [22]: Active; Activity [23]: inactive; Activity [24]: 55.9%; Activity [25]: Active; Activity [26]: Active; Activity [27]: Active; Activity [28]: 52.4%; Activity [29]: Non-Toxic; Activity [30]: Non-Toxic; Activity [31]: Non-Toxic; Activity [32]: Non-Toxic; Activity [33]: Non-Toxic; Activity [34]: Non-Toxic; LD50 at 168 h [35]: 84 mg/kg; Activity [36]: Non-Toxic; Activity [37]: Non-Toxic; Activity [38]: Toxic
